Laboratory results as given in ChEMBL document CHEMBL2163242, “Development of anti-coxsackievirus agents targeting 3C protease” (Bioorg Med Chem Lett, 2012).

Legend:
Genome polyprotein = Genome polyprotein (Coxsackievirus B3 (strain Nancy), UniProt P03313); experiment: Inhibition of Coxsackievirus B3 protease 3c using NMA-EALFQGPPVK-DNP as substrate incubated for 5 mins prior to substrate addition measured after 1 hr by FRET assay
Coxsackievirus B3 [1] = experiment: Antiviral activity against Coxsackievirus B3 H3 infected in HeLa-UVM cells assessed as host cell viability at 1 uM after 6 to 24 hrs by CCK8 assay; type: functional
[2] = target: Genome polyprotein (Coxsackievirus B3 (strain Nancy)) (UniProt P03313); experiment: Inhibition of Coxsackievirus B3 protease 3c using NMA-EALFQGPPVK-DNP as substrate at 10 uM incubated for 5 mins prior to substrate addition measured after 1 hr by FRET assay
Coxsackievirus B3 [3] = experiment: Antiviral activity against Coxsackievirus B3 H3 infected in HeLa-UVM cells assessed as host cell viability at 0.5 uM after 6 to 24 hrs by CCK8 assay; type: functional
[4] = Aqueous solubility of the compound by HPLC analysis; type: physicochemical; details: buffer

Chain of Genome polyprotein (P03313 1541-1723 limits assumed): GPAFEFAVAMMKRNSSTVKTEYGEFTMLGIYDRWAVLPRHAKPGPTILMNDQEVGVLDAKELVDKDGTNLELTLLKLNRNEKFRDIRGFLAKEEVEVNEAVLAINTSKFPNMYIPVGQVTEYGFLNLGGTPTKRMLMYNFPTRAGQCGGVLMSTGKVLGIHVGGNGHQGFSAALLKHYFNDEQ
Chain of Genome polyprotein (Coxsackievirus B3 (strain Nancy)) (P03313 whole entry): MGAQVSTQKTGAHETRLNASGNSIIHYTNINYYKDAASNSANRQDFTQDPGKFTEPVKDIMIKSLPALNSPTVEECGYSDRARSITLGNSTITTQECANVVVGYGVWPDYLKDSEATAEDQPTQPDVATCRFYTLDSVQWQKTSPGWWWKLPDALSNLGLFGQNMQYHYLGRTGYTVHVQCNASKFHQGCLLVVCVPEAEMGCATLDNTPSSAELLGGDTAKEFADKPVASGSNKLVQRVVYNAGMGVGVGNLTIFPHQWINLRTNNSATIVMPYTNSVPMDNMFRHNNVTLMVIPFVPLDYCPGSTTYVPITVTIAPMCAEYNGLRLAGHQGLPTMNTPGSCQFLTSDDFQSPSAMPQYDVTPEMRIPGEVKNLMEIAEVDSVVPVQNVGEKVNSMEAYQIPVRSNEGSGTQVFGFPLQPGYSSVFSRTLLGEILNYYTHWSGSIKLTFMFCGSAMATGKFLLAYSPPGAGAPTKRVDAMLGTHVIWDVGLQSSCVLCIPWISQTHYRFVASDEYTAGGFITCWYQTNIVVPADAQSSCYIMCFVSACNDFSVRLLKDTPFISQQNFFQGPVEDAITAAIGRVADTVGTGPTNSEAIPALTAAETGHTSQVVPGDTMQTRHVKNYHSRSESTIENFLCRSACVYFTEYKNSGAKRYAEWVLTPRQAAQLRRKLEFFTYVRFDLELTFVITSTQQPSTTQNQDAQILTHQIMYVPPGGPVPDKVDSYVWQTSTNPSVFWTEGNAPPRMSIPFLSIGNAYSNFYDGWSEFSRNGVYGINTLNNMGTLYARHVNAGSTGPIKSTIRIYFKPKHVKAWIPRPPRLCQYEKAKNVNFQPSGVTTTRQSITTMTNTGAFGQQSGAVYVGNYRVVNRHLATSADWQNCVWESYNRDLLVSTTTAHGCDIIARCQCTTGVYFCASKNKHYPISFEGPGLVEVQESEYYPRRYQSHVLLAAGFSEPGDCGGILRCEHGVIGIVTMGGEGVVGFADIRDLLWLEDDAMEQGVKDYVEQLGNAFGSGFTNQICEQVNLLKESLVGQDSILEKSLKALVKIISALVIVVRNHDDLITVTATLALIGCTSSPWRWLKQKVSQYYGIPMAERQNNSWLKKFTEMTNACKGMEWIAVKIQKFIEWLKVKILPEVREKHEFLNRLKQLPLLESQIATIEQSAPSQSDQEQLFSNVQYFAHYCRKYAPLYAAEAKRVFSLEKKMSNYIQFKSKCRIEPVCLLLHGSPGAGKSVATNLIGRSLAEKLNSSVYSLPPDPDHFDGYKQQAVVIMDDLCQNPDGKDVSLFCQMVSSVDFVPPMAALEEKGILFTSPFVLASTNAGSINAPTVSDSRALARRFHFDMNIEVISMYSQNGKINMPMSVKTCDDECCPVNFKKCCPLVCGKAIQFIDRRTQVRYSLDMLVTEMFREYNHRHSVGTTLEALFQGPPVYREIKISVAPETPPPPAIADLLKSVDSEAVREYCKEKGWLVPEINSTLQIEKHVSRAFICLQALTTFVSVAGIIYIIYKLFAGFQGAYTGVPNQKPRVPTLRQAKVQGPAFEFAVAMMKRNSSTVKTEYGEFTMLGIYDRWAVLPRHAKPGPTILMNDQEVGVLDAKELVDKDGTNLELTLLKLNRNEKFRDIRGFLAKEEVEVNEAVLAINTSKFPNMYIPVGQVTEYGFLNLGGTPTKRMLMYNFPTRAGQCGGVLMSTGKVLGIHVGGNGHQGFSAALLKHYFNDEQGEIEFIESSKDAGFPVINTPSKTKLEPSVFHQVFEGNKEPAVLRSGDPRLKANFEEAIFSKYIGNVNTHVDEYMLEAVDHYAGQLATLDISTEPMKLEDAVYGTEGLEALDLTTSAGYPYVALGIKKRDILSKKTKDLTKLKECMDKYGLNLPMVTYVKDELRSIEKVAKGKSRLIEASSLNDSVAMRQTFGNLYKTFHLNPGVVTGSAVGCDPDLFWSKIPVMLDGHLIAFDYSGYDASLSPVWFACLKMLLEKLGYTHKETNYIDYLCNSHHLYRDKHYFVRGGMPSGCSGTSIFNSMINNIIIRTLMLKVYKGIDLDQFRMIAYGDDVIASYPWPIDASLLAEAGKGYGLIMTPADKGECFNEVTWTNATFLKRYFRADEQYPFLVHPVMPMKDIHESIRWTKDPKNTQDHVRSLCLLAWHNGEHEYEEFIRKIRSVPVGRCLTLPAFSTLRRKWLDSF

Compound	IC50 (Genome polyprotein) [µM]	Activity (Coxsackievirus B3 [1]) [%]	inhibition [2] [%]	Activity (Coxsackievirus B3 [3]) [%]	solubility [4]
Cc1cc(C(=O)N[C@H](C(=O)N[C@@H](Cc2ccc(F)cc2)C(=O)N[C@@H](/C=C/C(=O)OCc2cn3c(C)cccc3n2)CCC(N)=O)C(C)C)no1	0.16	50	–	–	–
Cc1cc(C(=O)N[C@H](C(=O)N[C@@H](Cc2ccc(F)cc2)C(=O)N[C@@H](/C=C/C(=O)OCc2cccc3cnccc23)CCC(N)=O)C(C)C)no1	0.27	50	–	–	–
Cc1cc(C(=O)N[C@H](C(=O)N[C@@H](Cc2ccc(F)cc2)C(=O)O)C(C)C)no1	–	–	33.5	–	–
Cc1cc(C(=O)N[C@H](C(=O)N[C@@H](Cc2ccc(F)cc2)C(=O)N[C@@H](/C=C/C(=O)OCc2nc(-c3ccncc3)no2)CCC(N)=O)C(C)C)no1	0.65	50	–	–	–
Cc1cc(C(=O)N[C@H](C(=O)N[C@@H](Cc2ccc(F)cc2)C(=O)N[C@@H](/C=C/C(=O)OCc2cn3cccc(C)c3n2)CCC(N)=O)C(C)C)no1	0.17	50	–	–	–
Cc1cc(C(=O)N[C@H](C(=O)N[C@@H](Cc2ccc(F)cc2)C(=O)N[C@@H](/C=C/C(=O)OCc2nc3cc(Cl)ccc3[nH]2)CCC(N)=O)C(C)C)no1	0.65	50	–	–	–
Cc1cc(C(=O)N[C@H](C(=O)N[C@@H](Cc2ccc(F)cc2)C(=O)N[C@@H](/C=C/C(=O)OCc2ccc3ccccc3c2)CCC(N)=O)C(C)C)no1	0.41	50	–	–	–
Cc1cc(C(=O)N[C@H](C(=O)N[C@@H](Cc2ccc(F)cc2)C(=O)N[C@@H](/C=C/C(=O)OCc2ccnc3ccccc23)CCC(N)=O)C(C)C)no1	0.13	50	–	50	–
Cc1cc(C(=O)N[C@H](C(=O)N[C@@H](Cc2ccc(F)cc2)C(=O)N[C@@H](/C=C/C(=O)OCc2ccc3[nH]ncc3c2)CCC(N)=O)C(C)C)no1	0.18	50	–	–	–
Cc1cc(C(=O)N[C@H](C(=O)N[C@@H](Cc2ccc(F)cc2)C(=O)N[C@@H](/C=C/C(=O)OCc2ccc3cn[nH]c3c2)CCC(N)=O)C(C)C)no1	0.39	50	–	–	–
Cc1cc(C(=O)N[C@H](C(=O)N[C@@H](Cc2ccc(F)cc2)C(=O)N[C@@H](/C=C/C(=O)OCc2ccc3cnccc3c2)CCC(N)=O)C(C)C)no1	0.24	50	–	–	–
Cc1cc(C(=O)N[C@H](C(=O)N[C@@H](Cc2ccc(F)cc2)C(=O)N[C@@H](/C=C/C(=O)OCc2cnc3ccccc3c2)CCC(N)=O)C(C)C)no1	0.25	50	–	50	–
Cc1cc(C(=O)N[C@H](C(=O)N[C@@H](Cc2ccc(F)cc2)C(=O)N[C@@H](/C=C/C(=O)OCc2cccc3ncccc23)CCC(N)=O)C(C)C)no1	0.28	50	–	–	–
Cc1cc(C(=O)N[C@H](C(=O)N[C@@H](Cc2ccc(F)cc2)C(=O)N[C@@H](/C=C/C(=O)OCc2ccc3nc[nH]c3c2)CCC(N)=O)C(C)C)no1	0.47	50	–	–	–
Cc1cc(C(=O)N[C@H](C(=O)N[C@@H](Cc2ccc(F)cc2)C(=O)N[C@@H](/C=C/C(=O)OCc2nc3ccccc3[nH]2)CCC(N)=O)C(C)C)no1	0.24	50	–	–	–
Cc1cc(C(=O)N[C@H](C(=O)N[C@@H](Cc2ccc(F)cc2)C(=O)N[C@@H](/C=C/C(=O)OCc2ccc3[nH]ncc3c2)CCC(N)=O)C(C)C)no1.Cl	–	–	–	–	soluble
